# Assay results: ChEMBL document CHEMBL1201862, “PubChem BioAssay data set” (2004)
# The source made the active and inactive calls.
# Key:
# [1] = target: T1, Alkaline phosphatase, tissue-nonspecific isozyme (Homo sapiens, UniProt P05186); assay: human TNAP enzyme inhibitors, SAR follow-up, biochemical, luminescent, dose response (AID 1056)
# T1 sequence (P05186 whole entry): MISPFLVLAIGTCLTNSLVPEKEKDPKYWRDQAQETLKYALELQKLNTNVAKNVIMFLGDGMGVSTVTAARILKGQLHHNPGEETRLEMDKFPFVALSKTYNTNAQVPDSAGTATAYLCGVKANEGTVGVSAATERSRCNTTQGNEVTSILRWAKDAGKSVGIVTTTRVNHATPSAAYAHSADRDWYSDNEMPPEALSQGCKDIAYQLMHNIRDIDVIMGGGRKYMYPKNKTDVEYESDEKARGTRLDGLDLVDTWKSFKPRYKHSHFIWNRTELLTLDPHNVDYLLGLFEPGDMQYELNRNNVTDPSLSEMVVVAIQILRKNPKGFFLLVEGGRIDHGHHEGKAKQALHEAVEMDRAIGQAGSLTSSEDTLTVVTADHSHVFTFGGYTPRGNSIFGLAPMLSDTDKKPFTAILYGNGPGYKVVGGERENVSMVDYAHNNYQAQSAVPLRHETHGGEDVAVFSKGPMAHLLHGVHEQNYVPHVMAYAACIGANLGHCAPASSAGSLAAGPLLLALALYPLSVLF
# [2] = growth suppression of beta-catenin-knockout colon cells, dose response, cell-based, HCT116, human colon tumor (AID 1045); format: functional;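 also: HCT116 colon tumor cells with beta catenin knocked out; cells exposed to compound for 60 hours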
# [3] = growth suppression of PTEN-null colon cells, dose response, cell-based, HCT116 PTEN knockout (AID 1047); format: functional;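 also: HCT116 colon tumor cells with PTEN knocked out; cells exposed to compound for 60 hours before readout; potency for loss of cell viability measured by luminescence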
# Aminopeptidase N = target: T2, Aminopeptidase N (Plasmodium falciparum FcB1/Columbia, UniProt O96935); assay: P. falciparum M1AAP inhibitors, biochemical, fluorogenic H-Leu-NHMec substrate, 1536-well (AID 1445); design: species or system Plasmodium falciparum 3D7, 3D7
# T2 sequence (O96935 whole entry): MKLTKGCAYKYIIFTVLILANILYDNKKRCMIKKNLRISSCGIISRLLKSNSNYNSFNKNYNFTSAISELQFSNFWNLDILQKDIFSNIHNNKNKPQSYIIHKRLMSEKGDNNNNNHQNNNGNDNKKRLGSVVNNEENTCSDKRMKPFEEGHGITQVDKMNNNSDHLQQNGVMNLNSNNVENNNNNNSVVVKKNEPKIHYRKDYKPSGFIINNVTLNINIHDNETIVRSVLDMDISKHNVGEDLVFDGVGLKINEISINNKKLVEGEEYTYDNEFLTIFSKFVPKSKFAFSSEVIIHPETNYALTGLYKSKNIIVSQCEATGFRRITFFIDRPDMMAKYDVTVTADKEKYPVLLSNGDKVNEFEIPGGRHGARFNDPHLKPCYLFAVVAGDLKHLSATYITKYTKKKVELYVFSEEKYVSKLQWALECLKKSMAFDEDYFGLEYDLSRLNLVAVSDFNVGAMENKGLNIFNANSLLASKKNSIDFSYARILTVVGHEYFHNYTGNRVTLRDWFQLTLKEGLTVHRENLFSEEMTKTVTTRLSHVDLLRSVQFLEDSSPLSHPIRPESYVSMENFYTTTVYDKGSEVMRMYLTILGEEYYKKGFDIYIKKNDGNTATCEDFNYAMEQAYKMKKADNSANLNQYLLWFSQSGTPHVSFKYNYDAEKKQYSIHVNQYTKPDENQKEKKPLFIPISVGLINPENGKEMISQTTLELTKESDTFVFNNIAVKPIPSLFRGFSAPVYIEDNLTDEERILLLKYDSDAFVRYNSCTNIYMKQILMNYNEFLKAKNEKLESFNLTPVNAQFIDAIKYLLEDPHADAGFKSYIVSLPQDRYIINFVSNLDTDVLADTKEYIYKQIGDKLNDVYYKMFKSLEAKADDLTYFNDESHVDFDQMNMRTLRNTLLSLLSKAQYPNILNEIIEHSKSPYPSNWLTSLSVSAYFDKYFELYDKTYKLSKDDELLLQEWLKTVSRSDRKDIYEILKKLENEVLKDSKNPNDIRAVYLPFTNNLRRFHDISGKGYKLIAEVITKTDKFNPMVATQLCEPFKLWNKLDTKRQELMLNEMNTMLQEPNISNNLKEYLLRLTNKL
# [4] = target: Heat shock protein HSP 90-alpha (Homo sapiens, UniProt P07900); format: functional, organism-based
# [5] = target: Glyceraldehyde-3-phosphate dehydrogenase (Homo sapiens, UniProt P04406)
# Chain of Glyceraldehyde-3-phosphate dehydrogenase (P04406 whole entry, the tested form may be a part): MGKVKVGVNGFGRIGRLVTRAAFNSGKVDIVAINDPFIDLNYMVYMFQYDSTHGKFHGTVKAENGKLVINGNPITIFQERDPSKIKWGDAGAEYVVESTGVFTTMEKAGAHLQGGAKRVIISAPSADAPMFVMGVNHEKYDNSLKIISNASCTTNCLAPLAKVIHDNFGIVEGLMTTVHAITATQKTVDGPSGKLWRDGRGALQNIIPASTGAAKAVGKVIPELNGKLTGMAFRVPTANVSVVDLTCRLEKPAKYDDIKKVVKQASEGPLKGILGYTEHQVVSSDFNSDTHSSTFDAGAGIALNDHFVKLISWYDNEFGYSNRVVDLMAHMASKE
# Fatty acid synthase = Fatty acid synthase (Homo sapiens, UniProt P49327); assay: FAS thioesterase domain inhibitors, dose response, biochemical, kinetic fluorescence intensity (AID 624326); format: functional;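 also: rate of fluorescence rise from hydrolysis of a fluorogenic O-methyl fluorescein ester substrate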
# Chain of Fatty acid synthase (P49327 whole entry, the tested form may be a part): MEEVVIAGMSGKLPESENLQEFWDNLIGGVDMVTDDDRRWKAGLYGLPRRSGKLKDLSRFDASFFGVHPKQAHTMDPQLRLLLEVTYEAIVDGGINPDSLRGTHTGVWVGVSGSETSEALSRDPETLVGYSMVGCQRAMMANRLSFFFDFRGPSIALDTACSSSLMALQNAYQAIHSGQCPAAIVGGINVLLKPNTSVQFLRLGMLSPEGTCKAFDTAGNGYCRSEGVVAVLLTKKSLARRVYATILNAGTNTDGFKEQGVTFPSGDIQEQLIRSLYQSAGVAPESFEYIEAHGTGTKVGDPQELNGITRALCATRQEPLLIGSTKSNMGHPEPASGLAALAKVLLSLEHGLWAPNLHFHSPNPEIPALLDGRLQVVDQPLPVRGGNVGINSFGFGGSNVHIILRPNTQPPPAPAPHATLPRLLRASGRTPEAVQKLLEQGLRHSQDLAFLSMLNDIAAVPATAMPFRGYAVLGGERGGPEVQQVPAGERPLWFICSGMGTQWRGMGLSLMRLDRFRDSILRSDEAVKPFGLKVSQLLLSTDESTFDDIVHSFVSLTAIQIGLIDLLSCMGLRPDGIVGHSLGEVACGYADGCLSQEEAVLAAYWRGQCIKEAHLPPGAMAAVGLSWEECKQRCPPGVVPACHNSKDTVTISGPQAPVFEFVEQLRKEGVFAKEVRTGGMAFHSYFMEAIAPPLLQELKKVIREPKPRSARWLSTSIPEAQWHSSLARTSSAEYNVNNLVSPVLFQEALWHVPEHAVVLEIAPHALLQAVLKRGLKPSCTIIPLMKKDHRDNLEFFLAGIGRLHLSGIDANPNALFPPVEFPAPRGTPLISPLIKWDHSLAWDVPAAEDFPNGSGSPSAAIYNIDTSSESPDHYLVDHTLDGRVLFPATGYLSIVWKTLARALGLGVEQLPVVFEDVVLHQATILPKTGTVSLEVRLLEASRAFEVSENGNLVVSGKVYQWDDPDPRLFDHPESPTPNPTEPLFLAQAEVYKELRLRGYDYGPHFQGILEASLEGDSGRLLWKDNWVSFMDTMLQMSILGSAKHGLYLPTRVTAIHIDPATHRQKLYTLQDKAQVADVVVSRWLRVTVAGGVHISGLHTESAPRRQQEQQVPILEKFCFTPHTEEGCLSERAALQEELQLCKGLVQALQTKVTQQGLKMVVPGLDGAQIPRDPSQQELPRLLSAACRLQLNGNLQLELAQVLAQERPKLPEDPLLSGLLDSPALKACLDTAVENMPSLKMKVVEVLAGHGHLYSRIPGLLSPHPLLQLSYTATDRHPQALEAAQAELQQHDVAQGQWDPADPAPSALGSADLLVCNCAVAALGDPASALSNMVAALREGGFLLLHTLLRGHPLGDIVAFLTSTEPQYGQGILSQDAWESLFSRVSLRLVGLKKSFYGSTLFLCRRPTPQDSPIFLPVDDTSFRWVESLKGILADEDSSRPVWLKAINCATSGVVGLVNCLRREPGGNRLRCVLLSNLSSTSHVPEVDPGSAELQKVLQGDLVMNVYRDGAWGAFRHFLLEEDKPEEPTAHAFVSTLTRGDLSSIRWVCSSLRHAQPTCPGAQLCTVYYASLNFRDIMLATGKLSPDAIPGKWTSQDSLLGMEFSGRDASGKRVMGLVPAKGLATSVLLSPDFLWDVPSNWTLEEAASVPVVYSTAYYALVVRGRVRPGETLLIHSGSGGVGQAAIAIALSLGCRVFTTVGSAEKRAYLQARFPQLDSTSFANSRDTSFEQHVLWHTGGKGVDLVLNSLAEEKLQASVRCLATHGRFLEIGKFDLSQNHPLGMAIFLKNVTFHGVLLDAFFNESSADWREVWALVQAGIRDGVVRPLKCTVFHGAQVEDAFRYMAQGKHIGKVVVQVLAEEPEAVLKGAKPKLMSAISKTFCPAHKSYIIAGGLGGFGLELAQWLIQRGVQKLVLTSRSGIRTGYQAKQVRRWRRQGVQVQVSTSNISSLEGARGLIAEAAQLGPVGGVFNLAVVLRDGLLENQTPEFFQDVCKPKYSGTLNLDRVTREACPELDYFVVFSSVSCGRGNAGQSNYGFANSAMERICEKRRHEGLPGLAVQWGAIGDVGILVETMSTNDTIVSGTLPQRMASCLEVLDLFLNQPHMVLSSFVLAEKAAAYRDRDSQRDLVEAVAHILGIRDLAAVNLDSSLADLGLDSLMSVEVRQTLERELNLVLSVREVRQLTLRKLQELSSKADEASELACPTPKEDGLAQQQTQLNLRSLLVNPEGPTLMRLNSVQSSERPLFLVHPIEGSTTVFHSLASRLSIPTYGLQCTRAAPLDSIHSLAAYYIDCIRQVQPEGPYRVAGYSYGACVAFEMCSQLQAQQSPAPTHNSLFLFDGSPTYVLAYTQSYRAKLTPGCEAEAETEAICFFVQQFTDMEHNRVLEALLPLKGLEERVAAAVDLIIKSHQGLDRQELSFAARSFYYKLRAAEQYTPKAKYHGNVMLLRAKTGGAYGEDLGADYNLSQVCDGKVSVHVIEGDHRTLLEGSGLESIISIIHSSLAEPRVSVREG
# [6] = target: T3, Heat shock factor protein 1 (Mus musculus, UniProt P38532); assay: inhibition of MG132-induced HSE-luciferase signal, confirmation, cell-based, NIH3T3, luminescence, dose retest (AID 2382); format: functional;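 also: NIH3T3 fibroblasts with HSF1-driven luciferase reporter stressed by proteasome inhibitor MG132; luminescence from HSF1-driven luciferase expression after 8 hours of MG132 stress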
# T3 sequence (P38532 whole entry): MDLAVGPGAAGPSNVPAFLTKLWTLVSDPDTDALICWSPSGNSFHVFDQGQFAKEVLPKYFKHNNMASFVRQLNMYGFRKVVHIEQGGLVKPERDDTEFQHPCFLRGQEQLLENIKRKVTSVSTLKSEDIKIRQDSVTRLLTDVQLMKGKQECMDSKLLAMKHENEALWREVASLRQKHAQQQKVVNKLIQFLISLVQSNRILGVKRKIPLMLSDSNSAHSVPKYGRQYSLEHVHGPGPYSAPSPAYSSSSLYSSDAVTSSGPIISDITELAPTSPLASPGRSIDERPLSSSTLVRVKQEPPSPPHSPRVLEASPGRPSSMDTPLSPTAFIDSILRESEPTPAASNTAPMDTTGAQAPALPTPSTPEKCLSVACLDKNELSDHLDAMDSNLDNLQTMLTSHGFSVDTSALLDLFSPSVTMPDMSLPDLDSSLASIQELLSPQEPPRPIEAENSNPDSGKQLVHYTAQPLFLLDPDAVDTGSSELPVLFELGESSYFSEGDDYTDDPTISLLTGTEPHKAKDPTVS
# [7] = microbe, parasite or virus in culture; format: functional; conditions: Mycobacterium tuberculosis
# [8] = target: T4, Histone-lysine N-methyltransferase NSD2 (Homo sapiens, UniProt O96028); format: biochemical
# T4 sequence (O96028 whole entry): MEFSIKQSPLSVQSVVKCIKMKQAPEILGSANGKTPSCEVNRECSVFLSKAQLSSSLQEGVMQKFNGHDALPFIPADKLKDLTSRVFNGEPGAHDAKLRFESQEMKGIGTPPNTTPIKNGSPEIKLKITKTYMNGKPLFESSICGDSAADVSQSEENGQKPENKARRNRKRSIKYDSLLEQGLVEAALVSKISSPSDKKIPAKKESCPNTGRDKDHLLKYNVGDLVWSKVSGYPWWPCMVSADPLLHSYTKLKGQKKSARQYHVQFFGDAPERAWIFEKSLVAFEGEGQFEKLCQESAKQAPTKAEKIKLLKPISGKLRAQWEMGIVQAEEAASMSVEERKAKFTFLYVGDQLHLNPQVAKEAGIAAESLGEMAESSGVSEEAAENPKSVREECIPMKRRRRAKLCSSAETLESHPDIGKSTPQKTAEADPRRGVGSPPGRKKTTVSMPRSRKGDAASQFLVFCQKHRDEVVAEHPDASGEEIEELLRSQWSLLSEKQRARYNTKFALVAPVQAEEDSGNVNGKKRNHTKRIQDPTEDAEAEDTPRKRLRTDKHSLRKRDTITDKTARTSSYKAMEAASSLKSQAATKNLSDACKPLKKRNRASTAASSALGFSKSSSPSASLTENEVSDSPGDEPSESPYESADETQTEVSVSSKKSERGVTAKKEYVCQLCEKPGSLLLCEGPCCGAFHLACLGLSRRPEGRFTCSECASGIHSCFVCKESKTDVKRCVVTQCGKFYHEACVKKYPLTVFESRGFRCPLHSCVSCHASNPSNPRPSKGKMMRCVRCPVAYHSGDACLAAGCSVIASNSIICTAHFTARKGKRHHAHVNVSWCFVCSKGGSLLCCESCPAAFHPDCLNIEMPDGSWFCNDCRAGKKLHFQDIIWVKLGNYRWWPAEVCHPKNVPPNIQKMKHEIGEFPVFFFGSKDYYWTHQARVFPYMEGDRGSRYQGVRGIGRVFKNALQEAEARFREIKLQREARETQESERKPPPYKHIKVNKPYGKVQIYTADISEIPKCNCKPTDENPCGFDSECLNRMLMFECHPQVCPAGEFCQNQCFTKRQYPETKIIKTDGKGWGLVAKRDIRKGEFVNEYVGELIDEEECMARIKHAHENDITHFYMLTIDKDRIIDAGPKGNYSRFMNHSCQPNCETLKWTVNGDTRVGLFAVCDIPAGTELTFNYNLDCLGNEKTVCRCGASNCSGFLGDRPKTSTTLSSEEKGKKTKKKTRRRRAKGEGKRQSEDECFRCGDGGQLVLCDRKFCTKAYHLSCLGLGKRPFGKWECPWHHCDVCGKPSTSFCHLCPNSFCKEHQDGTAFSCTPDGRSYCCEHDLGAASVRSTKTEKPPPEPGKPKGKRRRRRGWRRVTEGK
structure (smiles),measurement,setting,value
O=C(Cn1ccnc1)c1ccc(O)c(O)c1,IC50,[1],> 100 µM (inactive)
CCOC(=O)c1[nH]c(CSc2nnc(-c3ccc(OC)cc3)o2)c(C(=O)OCC)c1C,EC50,[2],21.6 µM (active)
same,EC50,[3],20.8 µM (active)
Cc1ccc(-c2c(C)sc3ncn(CC(=O)N4CCOCC4)c(=O)c23)cc1C,IC50,Aminopeptidase N,12.4 µM (active)
Cc1cc(N2CCN(c3cccc(C)c3C)CC2)nc(-c2ccccc2)n1,AC50,[4],1.66 µM (active)
Cc1ccc(C)c(CSc2ncccc2C(=O)O)c1,IC50,Aminopeptidase N,77.7 µM (active)
Cc1cc(N2C(=O)c3ccc(C(=O)NCc4ccccc4)cc3C2=O)no1,IC50,Aminopeptidase N,18.6 µM (active)
CNC(=O)c1n[nH]c2c1COc1ccccc1-2,IC50,[1],> 100 µM (inactive)
same,IC50,[5],> 100 µM (not active)
CC1(C(=O)NS(=O)(=O)c2ccc(C#N)cc2)CCN1C(=O)c1ccc(C2CCCCC2)cc1 (centres undefined),IC50,Fatty acid synthase,5.24 µM (active)
Cc1ccc(-n2nnnc2SCC(=O)NC(C(=O)O)(c2ccccc2)c2ccccc2)cc1C,IC50,Aminopeptidase N,29.2 µM (active)
Cc1ccccc1N=C(S)NC(NC(=O)COc1ccccc1)C(Cl)(Cl)Cl (centres undefined),EC50,[2],31 µM (active)
same,EC50,[3],27.2 µM (active)
c1cncc(-c2cc[nH]n2)c1,IC50,[1],> 100 µM (inactive)
same,IC50,[5],> 100 µM (not active)
O=S(=O)(c1ccc2ccccc2c1)n1ccc2ccccc21,IC50,[1],> 100 µM (inactive)
same,IC50,[5],> 100 µM (not active)
O=C(c1ccc(-c2ccccc2)c(F)c1)C1CCCN(C(=O)c2cncs2)C1 (centres undefined),EC50,[6],> 195 µM (not active)
same,CC50,[7],32.9 µM (active)
same,AC50,[4],7.61 µM (active)
CCOC(=O)c1[nH]cnc1C(=O)Nc1ccncc1,IC50,Aminopeptidase N,26 µM (active)
COC(=O)Nc1ccc2c(c1)N(C(=O)CCN(C)C)c1ccccc1CC2,AC50,[8],> 20 µM (inactive)
NCc1cc(-c2cccnc2)no1,IC50,[1],> 100 µM (inactive)
same,IC50,[5],> 100 µM (not active)
CS(=O)(=O)c1sc2nc(-c3cccs3)cc(-c3ccccc3)c2c1N,IC50,Aminopeptidase N,81.1 µM (active)
Cc1nn(-c2ccccc2)c2sc(C(=O)NNC(=O)COc3cccc4ccccc34)cc12,EC50,[2],19.3 µM (active)
same,EC50,[3],19.2 µM (active)
CCOCCCNC1=C(Cl)C(=O)c2ccccc2C1=O,AC50,[8],12.3 µM (active)
same,AC50,[4],10.6 µM (active)
